Key:
[1] = molecular target: T1, α4β7 (Homo sapiens, UniProt P13612+P26010); assay: Cell-based MAdCAM-1 ligand binding assay (LBA) on RPMI 8866 cells (Example 6); conditions: MAdCAM-1-Fc Dylight 650, 3 mM manganese chloride, flow cytometry, Table 4 comparative compounds, read-out: LB Assay (Example 6)
T1 construct: endogenous in cells; host or cells: RPMI 8866 cells
T1 sequence (P13612 34-1032): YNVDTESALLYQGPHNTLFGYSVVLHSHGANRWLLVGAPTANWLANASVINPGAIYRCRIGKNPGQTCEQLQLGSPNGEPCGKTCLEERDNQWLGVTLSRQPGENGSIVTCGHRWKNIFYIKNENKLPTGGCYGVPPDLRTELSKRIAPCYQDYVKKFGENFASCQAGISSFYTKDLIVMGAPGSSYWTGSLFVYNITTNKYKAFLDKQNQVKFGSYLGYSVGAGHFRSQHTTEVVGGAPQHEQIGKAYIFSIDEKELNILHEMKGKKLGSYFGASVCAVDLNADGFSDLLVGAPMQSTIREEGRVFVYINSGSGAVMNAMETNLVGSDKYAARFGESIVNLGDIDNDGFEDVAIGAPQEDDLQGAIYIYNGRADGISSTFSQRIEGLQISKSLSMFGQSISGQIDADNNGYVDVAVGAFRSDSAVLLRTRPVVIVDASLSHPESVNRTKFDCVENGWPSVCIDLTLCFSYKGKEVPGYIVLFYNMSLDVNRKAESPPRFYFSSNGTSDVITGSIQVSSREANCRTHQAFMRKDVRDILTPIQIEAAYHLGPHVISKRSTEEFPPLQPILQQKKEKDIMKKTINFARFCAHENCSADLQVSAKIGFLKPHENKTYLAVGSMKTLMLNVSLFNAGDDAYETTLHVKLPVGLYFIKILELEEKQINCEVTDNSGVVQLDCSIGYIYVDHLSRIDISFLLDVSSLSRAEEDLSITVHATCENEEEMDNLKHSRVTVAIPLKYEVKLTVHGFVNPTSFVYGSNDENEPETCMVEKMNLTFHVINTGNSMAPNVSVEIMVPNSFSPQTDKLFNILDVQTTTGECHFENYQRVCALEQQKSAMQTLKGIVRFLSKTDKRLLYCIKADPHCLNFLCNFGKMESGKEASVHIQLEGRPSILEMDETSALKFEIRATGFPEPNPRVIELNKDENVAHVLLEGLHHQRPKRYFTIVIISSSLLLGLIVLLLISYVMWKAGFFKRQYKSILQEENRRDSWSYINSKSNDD
T1 sequence (P26010 20-798): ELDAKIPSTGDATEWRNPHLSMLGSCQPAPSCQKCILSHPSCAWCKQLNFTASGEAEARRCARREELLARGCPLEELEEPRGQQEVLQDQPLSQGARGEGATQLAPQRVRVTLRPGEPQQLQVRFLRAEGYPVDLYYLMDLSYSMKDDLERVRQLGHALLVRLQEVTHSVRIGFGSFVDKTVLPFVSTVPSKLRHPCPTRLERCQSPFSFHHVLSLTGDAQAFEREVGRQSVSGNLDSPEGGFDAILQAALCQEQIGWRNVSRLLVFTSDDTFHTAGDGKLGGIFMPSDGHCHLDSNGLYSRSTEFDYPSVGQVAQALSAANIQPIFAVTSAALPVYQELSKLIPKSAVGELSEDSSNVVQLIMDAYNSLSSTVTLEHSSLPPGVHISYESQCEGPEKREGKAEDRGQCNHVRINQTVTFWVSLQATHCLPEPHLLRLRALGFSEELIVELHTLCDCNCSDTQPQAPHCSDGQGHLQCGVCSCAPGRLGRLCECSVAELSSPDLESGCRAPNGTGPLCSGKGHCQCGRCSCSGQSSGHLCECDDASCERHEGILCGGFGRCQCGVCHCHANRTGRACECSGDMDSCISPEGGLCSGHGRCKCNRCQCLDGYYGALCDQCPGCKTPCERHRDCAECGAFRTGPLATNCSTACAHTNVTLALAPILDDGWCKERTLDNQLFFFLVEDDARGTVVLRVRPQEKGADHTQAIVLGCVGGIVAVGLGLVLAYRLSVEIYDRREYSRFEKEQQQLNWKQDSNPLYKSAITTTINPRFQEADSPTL
Text: Compounds of Formula (I) were further evaluated using a Ligand binding assay (LBA) to examine compound potency of free ligand binding to receptors expressed on cells. The MAdCAM ligand binding assay uses flow cytometry to measure the binding of fluorescently-labeled MAdCAM-1-Fc to RPMI 8866 cells in the presence of Mn++. This assay assesses the binding of compounds to native full-length receptors on the cell surface. […] Ligand binding assays (LBA) are used to examine compound potency and selectivity of free ligand binding to receptors expressed on cells.
(§1) Three in vitro assays were used to examine the α4β7 mechanistic process used by cells: 1) ligand:receptor affinity, 2) the avidity of those interactions on a cell's surface, and 3) how those interactions fare under an imposing force. In Example 5, a Fluorescence Polarization (FP) assay is used to measure compound activity through binding competition with the fluorescein-labeled peptide. In Example 6, the potency of compounds against α4β7 is measured in the cell-based ligand binding assay (LBA), using RPMI 8866 cells incubated with the compound samples in competition with soluble MAdCAM-1 ligand. In Example 7, activity of compounds is evaluated in a cell adhesion assay that mechanistically tests what occurs in vivo when trafficking cells utilize α4β7 to adhere to MAdCAM-1 expressing HEVs of the gut during the extravasation process. In the cell adhesion assay of Example 7, a MAdCAMI1-(Fc) is coated on plastic, and α4β7 expressing cells (RPMI-8866) are allowed to adhere to the coated surface in the presence of the test compounds. Next, the force of washing with buffer is applied to cells thereby testing the strength of that adhesion. Unattached cells are removed and the remaining adherent cells are quantified.
5 ul of 33 nM MAdCAM-1-Fc fluorescently labeled with Dylight 650 in 50 mM HEPES pH 7.3, 150 mM sodium chloride, and 1% bovine serum albumin was added to the cells. The samples were incubated for 45 minutes at room temperature, fixed with 0.8% formaldehyde for 30 minutes at room temperature, and washed with 50 mM Tris pH 7.5, 150 mM NaCl, 1 mM EDTA, and 1% bovine serum albumin. Fluorescence intensity for each cell was measured via flow cytometry. Dead cells were excluded from further analysis based on staining with the 780 fixable viability dye. Median fluorescence intensity for Dylight 650 was determined for each sample and concentration-response curves were analyzed for IC50 values using 4-parameter non-linear regression analysis.

[2] = molecular target: T1, α4β7; assay: Cell adhesion assay, RPMI8866 cells on MAdCAM coated plates (Example 7); assay type: cell-based; conditions: RPMI8866 cells adhering to recombinant human MAdCAM, read-out: CA Assay (Example 7)
Method: as §1
Example 7 describes a cell adhesion assay.
To each well of a 96 well plate, 100 ug of recombinant human MAdCAM in 100 ul PBS is added and incubated overnight at 4° C. After incubation MAdCAM is removed by aspiration and 200 ul of PBS+1% BSA is added to block the plate for 2 hours at 37° C. and 5% CO2. During this incubation dilution curves of compound are made in 100% DMSO in 96 well V bottom plates. 1.75 ul of diluted compounds are then transferred to a new 96 well U bottom plate containing 20 ul of assay media (phosphate free DMEM+25 mM HEPES+1% BSA). To this an additional 155 ul of assay media is added with mixing by pipetting up and down. This mixture is allowed to incubate for 15 minutes at 37° C. and 5% CO2. After incubation 175 ul of assay media containing 2e6/mL RPMI8866 cells is added to compound containing wells without mixing and plate is allowed to incubate for another 15 minutes at 37° C. and 5% CO2. During this incubation MAdCAM coated plates are removed from incubator and washed twice with 200 ul PBS+0.1% BSA. […] This plate is then incubated at 37° C. and 5% CO2 for 1 hour. After incubation plates are washed twice with 200 ul and once with 50 ul of phenol free RPMI+1% BSA. A final 50 ul of phenol free RPMI+1% BSA is added to wells after last wash. Next 50 ul of Promega cell titer glow is added to the wells. Plate is incubated on shaker for 2 minutes at 200 RPM followed by another 8 minutes off shaker before having the luminescence read on a Biotek Citation 5 plate reader. Raw data is converted to % inhibition compared to bottom of curve and analyzed using a 4-parameter non linear curve in Prism to determine IC50 and IC90.

[3] = molecular target: T2, integrin α4β7 (Homo sapiens, UniProt P13612+P26010); assay: Fluorescence polarization (FP) assay for α4β7 binding (Example 5); conditions: competition with fluorescein-labeled peptide, 6.5 nM integrin α4β7, 2 mM manganese chloride; Table 4 comparative compounds
T2 sequence (P13612 35-977 limits assumed): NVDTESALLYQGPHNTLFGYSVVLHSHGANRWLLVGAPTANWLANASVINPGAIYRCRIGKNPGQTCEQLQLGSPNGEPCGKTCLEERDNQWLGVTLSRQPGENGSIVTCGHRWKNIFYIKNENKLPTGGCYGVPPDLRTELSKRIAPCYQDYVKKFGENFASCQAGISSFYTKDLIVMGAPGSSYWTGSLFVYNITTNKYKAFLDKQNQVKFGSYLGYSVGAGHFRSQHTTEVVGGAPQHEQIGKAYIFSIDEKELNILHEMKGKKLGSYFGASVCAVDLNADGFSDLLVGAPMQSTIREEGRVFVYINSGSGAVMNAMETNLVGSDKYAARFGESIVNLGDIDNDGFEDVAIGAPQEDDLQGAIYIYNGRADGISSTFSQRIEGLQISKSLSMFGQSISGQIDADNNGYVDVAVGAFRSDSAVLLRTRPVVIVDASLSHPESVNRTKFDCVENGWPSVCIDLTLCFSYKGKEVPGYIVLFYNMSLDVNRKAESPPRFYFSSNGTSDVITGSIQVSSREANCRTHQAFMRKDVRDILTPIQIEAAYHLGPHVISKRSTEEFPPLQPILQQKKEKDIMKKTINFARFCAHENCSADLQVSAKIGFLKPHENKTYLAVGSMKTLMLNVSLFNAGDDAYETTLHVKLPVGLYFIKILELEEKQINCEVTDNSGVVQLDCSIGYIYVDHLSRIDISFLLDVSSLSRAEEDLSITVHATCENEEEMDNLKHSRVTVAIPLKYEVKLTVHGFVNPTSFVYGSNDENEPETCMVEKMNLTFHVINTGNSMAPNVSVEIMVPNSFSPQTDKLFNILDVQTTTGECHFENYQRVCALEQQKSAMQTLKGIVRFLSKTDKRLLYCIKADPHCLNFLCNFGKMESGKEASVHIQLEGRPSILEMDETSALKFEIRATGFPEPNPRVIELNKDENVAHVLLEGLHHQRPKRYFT
T2 sequence (P26010 20-723 limits assumed): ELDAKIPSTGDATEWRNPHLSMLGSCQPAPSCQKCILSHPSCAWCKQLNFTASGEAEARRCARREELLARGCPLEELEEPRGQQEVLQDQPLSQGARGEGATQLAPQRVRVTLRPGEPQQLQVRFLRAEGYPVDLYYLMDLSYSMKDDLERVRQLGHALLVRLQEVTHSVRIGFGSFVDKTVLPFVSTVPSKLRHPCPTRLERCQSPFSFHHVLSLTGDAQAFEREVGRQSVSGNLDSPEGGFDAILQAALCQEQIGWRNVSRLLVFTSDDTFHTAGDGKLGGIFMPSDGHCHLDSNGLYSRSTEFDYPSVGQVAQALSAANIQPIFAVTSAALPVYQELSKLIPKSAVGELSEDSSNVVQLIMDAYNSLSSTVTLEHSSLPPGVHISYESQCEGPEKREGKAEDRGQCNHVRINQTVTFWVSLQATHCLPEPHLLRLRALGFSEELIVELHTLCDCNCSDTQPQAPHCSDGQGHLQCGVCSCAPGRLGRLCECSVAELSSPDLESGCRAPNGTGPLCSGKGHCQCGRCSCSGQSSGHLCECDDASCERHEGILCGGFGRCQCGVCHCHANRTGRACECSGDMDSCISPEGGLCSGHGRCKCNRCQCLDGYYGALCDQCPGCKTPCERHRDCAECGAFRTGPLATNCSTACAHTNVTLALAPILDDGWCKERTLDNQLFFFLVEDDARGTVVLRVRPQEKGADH
Method: Compounds of Formula (I) were evaluated using a fluorescent polarization (FP) assay. FP assays are used to evaluate potency of compounds on purified protein. The FP assays consists of measuring purified integrin αβ heterodimer ecto domains or headpiece binding to surrogate or truncated ligands.
as §1
Fluorescence Polarization (FP) assays were used to measure compound activity through binding competition with the fluorescein-labeled peptide […]{Lys(FITC)}. In the assay, 6.5 nM of integrin α4β7 was incubated with the test compound in 2 mM manganese chloride, 0.1 mM calcium chloride, 20 mM HEPES buffer at pH 7.3, 150 mM sodium chloride, 0.01% Triton X-100, 2% DMSO, and 3 nM of the fluorescein-labeled peptide. Running the assays in 384-well plates, the integrin protein was pre-incubated with the test compounds for 15 minutes at 22° C. before the fluorescein-labeled peptide was added. After the fluorescein-labeled peptide was added, the assay was incubated at 22° C. for 1 hour and fluorescence polarization was measured. IC50 values were determined by nonlinear regression, four-parameter curve fitting.

Compound | IC50 [3] [nM] | also measured
Cc1ccccc1-c1cc([C@H](CC(=O)O)NC(=O)[C@H](CC(C)C)n2ccc(C(F)(F)F)cc2=O)cnc1C |  | IC50 [1]: 10 to 500 nM; IC50 ([2]; Table 4 comparative compounds): > 100 nM
Cc1cccc(C)c1-c1cncc([C@H](CC(=O)O)NC(=O)[C@@H](CC(C)C)n2ccccc2=O)c1 | 10 to 500 | 
Cc1cccc(C)c1-c1cncc([C@@H](CC(=O)O)NC(=O)[C@H](CC(C)C)n2ccccc2=O)c1 | > 500 | 
Cc1cccc(C)c1-c1cncc([C@@H](CC(=O)O)NC(=O)[C@@H](CC(C)C)n2ccccc2=O)c1 | > 500 | 
COC1CN(CCc2cn([C@H](CC(C)C)C(=O)N[C@@H](CC(=O)O)c3cc(-c4c(C)cccc4C)cc(Cl)c3F)c(=O)cc2C(F)(F)F)C1 [W-P2, (3S)-3-(5-chloro-4-fluoro-2′,6′-dimethyl-[1,1′-biphenyl]-3-yl)-3-(2-(5-(2-(3-methoxyazetidin-1-yl)ethyl)-2-oxo-4-(trifluoromethyl)pyridin-1(2H)-yl)-4-methylpentanamido)propanoic acid] |  | IC50 ([2]; Table 3): < 5 nM
